Experimental findings from US6720344B2, “Methods and compositions for stimulating osteoblast proliferation or treating malignant cell proliferation and methods for selecting osteoblast proliferation stimulants” (The Board of Regents of the University of Texas System, priority 1996, dated 2004) are described below.

The term melting point denotes the temperature of the solid-liquid transition.

Molecules are shown by their SMILES.

The subject of one data set is BMP-2 promoter. Nature of the data set: BMP-2 promoter luciferase assay in 2T3 cells (Example 1). It counts as cell-based, murine. From the text: Such activity may be determined using any one of a number of methods known to the skilled artisan, such as by using the luciferase promoter assay described in Example 1. […] Since BMP-2 luciferase promoter constructs were transfected into immortalized murine osteoblasts (2T3 cells), the stimulation of luciferase activity is reasonably correlated to a osteoblast proliferation stimulation activity as recognized by those of ordinary skill in the art.
This technique has been described in the scientific literature [Ghosh-Choudhury, N.; Windle, J; J.; Koop, B. A.; Harris, M. A.; Guerrero, D. L.; Wozney, J. M.; Mundy, G. R.; Harris, S. E.; “Immortalized Murine Osteoblasts Derived from BMP 2-T-Antigen Expressing Transgenic Mice” Endocrinology (1996) 137, 331-339]. […]
Immortalized murine osteoblasts (2T3 cells) containing a bone morphogenetic protein 2 (BMP-2) promoter fragment are isolated from the calvaria of transgenic mice and cloned. […] Employing this BMP-2 promoter assay as an additional screening technique, the ED50 of compounds that stimulate luciferase activity, and, by inference, osteoblast proliferation, can be further assessed. […]
The transfection is carried out by the calcium phosphate precipitation technique. […] Luciferase enzyme activity can be measured in 15 different clonal cell lines. […] Luciferase activity is measured using a kit from Promega and a luminometer.

`COc1ccc(C(=O)Nc2nc3ccccc3s2)cc1` [2-(4-methoxybenzoyamino)-1,3-benzthiazole, reference compound]: in the data set on BMP-2 promoter (assay conditions of Example 1, stimulation of luciferase activity, read-out: ED50 in the promoter assay), the EC50 was roughly 100 nM. `CC(C)Oc1ccc2c(c1)Cc1ccccc1C2=O` [anthrone, 3-i-propoxyanthrone] gave a melting point of 123 to 124 °C. Moreover, the “production of luciferase action / BMP-2 promoter activity, in words” value with BMP-2 promoter (assay for BMP-2 promoter activity, compared to control) is listed as “reduced pharmacological activity”.
